Laboratory results: patent US6949566B2, “Thiazole and oxazole derivatives” (Shionogi & Co. Ltd., priority 2000, dated 2005)

Target: T1, MMP-2 (Homo sapiens, UniProt P08253)
T1 construct: purchased Calbiochem-Novabiochem International, Inc
T1 sequence (P08253 110-660): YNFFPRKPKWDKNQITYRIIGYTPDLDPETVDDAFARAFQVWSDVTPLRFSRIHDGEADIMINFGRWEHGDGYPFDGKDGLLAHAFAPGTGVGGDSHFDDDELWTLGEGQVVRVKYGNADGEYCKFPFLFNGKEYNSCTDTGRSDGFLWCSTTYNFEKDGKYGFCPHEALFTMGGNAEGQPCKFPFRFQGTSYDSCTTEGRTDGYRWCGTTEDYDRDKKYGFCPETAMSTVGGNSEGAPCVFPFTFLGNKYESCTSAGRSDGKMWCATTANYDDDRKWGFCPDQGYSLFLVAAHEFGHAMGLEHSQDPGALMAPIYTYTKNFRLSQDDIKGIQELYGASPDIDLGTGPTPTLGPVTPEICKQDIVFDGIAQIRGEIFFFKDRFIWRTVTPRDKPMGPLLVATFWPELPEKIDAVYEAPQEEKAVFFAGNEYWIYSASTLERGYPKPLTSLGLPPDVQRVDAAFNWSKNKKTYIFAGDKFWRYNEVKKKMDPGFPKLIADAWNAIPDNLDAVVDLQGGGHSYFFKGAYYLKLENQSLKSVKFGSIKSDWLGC
Test: Assay for inhibitory activities on MMPs (fluorogenic peptide substrate), MMP-2
Assay type: biochemical
Details: purchased MMP-2; substrate MOCAc-Pro-Leu-Gly-Leu-A2Pr(DNP)-Ala-Arg-NH2
Method: MMP-2 was purchased from Calbiochem-Novabiochem International, Inc.
(§1) The enzymatic activity on MMPs was analyzed by the method described in “C. Graham Knight, Frances Willenbrock and Gillian Murphy: A novel coumarin-labelled peptide for sensitive continuous assays of the matrix metalloproteinases: FEBS LETT., 296, (1992), 263-266”. The substrate MOCAc-Pro-Leu-Gly-Leu-A2Pr(DNP)-Ala-Arg-NH2 was purchased from Peptide Institute, Inc., Osaka, Japan. The measurement of the inhibitory activities (IC50) was carried out by the following four methods;
(§2) (A) Reaction with substrate, enzyme (MMPs) and inhibitor
(§3) (B) Reaction with substrate and inhibitor, without enzyme
(§4) (C) Reaction with substrate and enzyme (MMPs), without inhibitor
(§5) (D) Reaction with substrate only
(§6) IC50 values were calculated by using the following formula and each fluorescence values of above four methods (A to D). % inhibition={1−(A−B)/(C−D)}×100 IC50 means the concentration required to inhibit 50% of the enzyme activity.

IC50 [nM] | Compound
9.31 | O=C(O)[C@@H](Cc1ccccc1)NS(=O)(=O)c1ccc(-c2ncc(-c3ccc4ccccc4c3)o2)cc1 [Compound A-1]
1.29 | COc1ccc(-c2cnc(-c3ccc(S(=O)(=O)N[C@H](Cc4ccccc4)C(=O)O)cc3)s2)cc1 [Compound B-1]
2.41 | C[C@@H](NS(=O)(=O)c1ccc(-c2ncc(-c3ccc4ccccc4c3)s2)cc1)C(=O)O [Compound B-53]
5.24 | CC(C)[C@H](NS(=O)(=O)c1ccc(-c2ncc(-c3ccc(Cl)cc3)s2)cc1)C(=O)O [Compound B-5]

Target: T2, MMP-8 (Homo sapiens, UniProt P22894)
T2 construct: catalytic domain (^99Phe˜^262Gly) was amplified with PCR; His-tag; enterokinase digestion-site; made in house; host or cells: Escherichia coli
T2 sequence (P22894 99-262): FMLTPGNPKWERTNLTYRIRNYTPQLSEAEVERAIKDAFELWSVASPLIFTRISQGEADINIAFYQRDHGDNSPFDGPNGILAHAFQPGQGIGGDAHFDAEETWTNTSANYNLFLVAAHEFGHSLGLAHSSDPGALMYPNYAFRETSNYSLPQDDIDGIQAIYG
Test: Assay for inhibitory activities on MMPs (fluorogenic peptide substrate), MMP-8
Assay type: biochemical
Details: catalytic domain 99Phe-262Gly; substrate MOCAc-Pro-Leu-Gly-Leu-A2Pr(DNP)-Ala-Arg-NH2
Excerpt: In regard to MMP-8, catalytic domain (^99Phe˜^262Gly) was amplified with PCR using commercial available Human Bone Marrow cDNA. This was cloned in Escherichia. coli expression vector pTrc99AHE inserted with His-tag sequence and enterokinase digestion-site, induced and expressed by IPTG (Isopropyl-β-D-thiogalactopyranoside) and expressed in a insoluble fraction (Thau F. Ho, M. Walid Qoronfleh, Robert C. Wahl, Trica A. Pulvino, Karen J. Vavra, Joe Falvo, Tracey M. Banks, Patricia G. Brake and Richard B. Ciccarelli: Gene expression, purification and characterization of recombinant human neutrophil collagenase. Gene 146, (1994) 297-301, Prepared by the a improved method of this material). Isolation of MMP-8 from an insoluble fraction was carried out by dissolving in modifier (6M urea) by a usual method and purification with metal chelate chromatography. And then removing modifier (6M urea) with dialysis and refolding of the enzyme spontaneously gave activated MMP-8.
as §1, §2, §3, §4, §5, §6

IC50 [nM] | Compound
230 | O=C(O)[C@@H](Cc1ccccc1)NS(=O)(=O)c1ccc(-c2ncc(-c3ccc4ccccc4c3)o2)cc1 [Compound A-1]
28.2 | COc1ccc(-c2cnc(-c3ccc(S(=O)(=O)N[C@H](Cc4ccccc4)C(=O)O)cc3)s2)cc1 [Compound B-1]
373 | C[C@@H](NS(=O)(=O)c1ccc(-c2ncc(-c3ccc4ccccc4c3)s2)cc1)C(=O)O [Compound B-53]
25.7 | CC(C)[C@H](NS(=O)(=O)c1ccc(-c2ncc(-c3ccc(Cl)cc3)s2)cc1)C(=O)O [Compound B-5]

Tested on: not given
Test: not given
Details: not given

melting point [°C] | Compound
243 to 245 | O=C(O)[C@@H](Cc1ccccc1)NS(=O)(=O)c1ccc(-c2ncc(-c3ccc4ccccc4c3)o2)cc1 [Compound A-1]
222 to 223 | COc1ccc(-c2cnc(-c3ccc(S(=O)(=O)N[C@H](Cc4ccccc4)C(=O)O)cc3)s2)cc1 [Compound B-1]

Target: T3, MMP-12 (Homo sapiens, UniProt P39900)
T3 construct: catalytic domain(^100Phe˜^263Gly) was amplified with RT-PCR; His-tag; enterokinase digestion-site; made in house; host or cells: Escherichia coli
T3 sequence (P39900 100-263): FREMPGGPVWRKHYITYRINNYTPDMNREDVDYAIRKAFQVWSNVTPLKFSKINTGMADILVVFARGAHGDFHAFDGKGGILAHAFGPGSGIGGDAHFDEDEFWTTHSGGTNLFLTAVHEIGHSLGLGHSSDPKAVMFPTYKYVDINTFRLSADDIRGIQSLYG
Test: Assay for inhibitory activities on MMPs (fluorogenic peptide substrate), MMP-12
Assay type: biochemical
Details: catalytic domain 100Phe-263Gly; substrate MOCAc-Pro-Leu-Gly-Leu-A2Pr(DNP)-Ala-Arg-NH2
Method: (§7) In regard to MMP-12, catalytic domain(^100Phe˜^263Gly) was amplified with RT-PCR from Human Placenta Total RNA. This was cloned in Escherichia. coli expression vector pTrc99AHE inserted with His-tag sequence and enterokinase digestion-site, induced and expressed by IPTG (Isopropyl-β-D-thiogalactopyranoside) and expressed in a insoluble fraction. Isolation of MMP-12 from an insoluble fraction was carried out by dissolving in modifier (6M urea) by a usual method and purification with metal chelate chromatography (Ni Chelateing Sepharose). And then removing modifier (6M urea) with dialysis and refolding of the enzyme spontaneously gave activated MMP-12.
as §1, §2, §3, §4, §5, §6

IC50 [nM] | Compound
1.88 | O=C(O)[C@@H](Cc1ccccc1)NS(=O)(=O)c1ccc(-c2ncc(-c3ccc4ccccc4c3)o2)cc1 [Compound A-1]
3.55 | COc1ccc(-c2cnc(-c3ccc(S(=O)(=O)N[C@H](Cc4ccccc4)C(=O)O)cc3)s2)cc1 [Compound B-1]
2.54 | C[C@@H](NS(=O)(=O)c1ccc(-c2ncc(-c3ccc4ccccc4c3)s2)cc1)C(=O)O [Compound B-53]
1.33 | CC(C)[C@H](NS(=O)(=O)c1ccc(-c2ncc(-c3ccc(Cl)cc3)s2)cc1)C(=O)O [Compound B-5]

Target: T4, MMP-9 (Homo sapiens, UniProt P14780)
T4 construct: endogenous in cells; host or cells: HT1080 human fibrosarcoma cells, TPA-stimulated; enzyme purified from conditioned medium
T4 sequence (P14780 107-707 limits assumed): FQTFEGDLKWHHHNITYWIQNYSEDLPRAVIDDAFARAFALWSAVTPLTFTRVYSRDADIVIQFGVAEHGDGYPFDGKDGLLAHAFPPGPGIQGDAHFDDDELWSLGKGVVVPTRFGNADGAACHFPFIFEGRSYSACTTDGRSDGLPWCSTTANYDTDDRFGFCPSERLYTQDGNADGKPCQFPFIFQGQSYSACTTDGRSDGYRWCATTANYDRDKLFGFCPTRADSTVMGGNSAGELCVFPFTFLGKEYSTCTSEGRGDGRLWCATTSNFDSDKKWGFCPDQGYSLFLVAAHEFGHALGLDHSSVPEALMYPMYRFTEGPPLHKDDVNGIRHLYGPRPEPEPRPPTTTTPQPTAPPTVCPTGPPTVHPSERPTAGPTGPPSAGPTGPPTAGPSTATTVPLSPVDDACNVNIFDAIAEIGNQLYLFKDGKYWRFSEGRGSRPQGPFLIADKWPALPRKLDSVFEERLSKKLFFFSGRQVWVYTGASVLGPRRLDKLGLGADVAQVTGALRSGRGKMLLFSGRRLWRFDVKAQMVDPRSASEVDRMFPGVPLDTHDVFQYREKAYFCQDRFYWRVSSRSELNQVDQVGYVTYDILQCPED
Test: Assay for inhibitory activities on MMPs (fluorogenic peptide substrate), MMP-9
Assay type: biochemical
Details: MMP-9 from HT1080 cells, activated by TPCK-Trypsin; substrate MOCAc-Pro-Leu-Gly-Leu-A2Pr(DNP)-Ala-Arg-NH2
Excerpt: MMP-9 was isolated and purified by procedures described in as follows: Yasunori Okada, Yukio Gonoji, Katsumi Naka, Katsuro Tomita, Isao Nakanishi, Kazushi Iwata, Kyoko Yamashita, and Taro Hayakawa: Matrix metalloproteinase 9 (92-kDa gelatinase/type IV collagenase) from HT1080 human fibrosarcoma cells. Purification and activation of the precursor and enzymic properties J. Biol. Chem., 1992, 267 21712-21719, in combination with others: 1)Yasunori Okada, Tatsuhisa Morodomi, Jan J, Enghild, ko Suzuki, Atsushi Yasui, Isao Nakanishi, Guy Salvesen and Hideaki Nagase: Matrix metalloproteinase 2 from human rheumatoid synovial fibroblasts. Purification and activation of the precursor and enzymic properties. Eur. J. Biochem. 1990, 194 721-730; 2)Robin V Ward, Rosalind M Hembry, John J Reynolds and Gillian Murphy: The purification of tissue inhibitor of metalloproteinase-2 from its 72 kDa progelatinase complex. Biochem. J. 1991 278 179-187. In detail, human fibrosarcoma ATCC HT1080 cell line was cultured to confluent in Dulbecco's Modified Medium (DMEM) containing 10% fetal-calf serum at 37° C. for 48 hours. Subsequently, the medium of confluent culture was changed to serum-free DMEM medium. To obtain MMP-9, Phorbol-12-myristate-13-acetate (TPA) must be added to this serum-free DMEM medium at a concentration of 50 ng/ml. The TPA treated medium was centrifuged at 3000 rpm for 15 min and the supernatant was concentrated to 450 ml by a Toyo-Roshi UP-20 apparatus with an ultrafiltration membrane. Then, proMMP-9 in this concentrated solution was purified by using columns of Gelatin-Sepharose and Concanavalin A-Sepharose. The pool containing proMMP-9 was dialyzed, concentrated (Toyo-Roshi UP-20) and applied to columns of Sephacryl S-200 and Green A matrix for the separation from TIMPs. The obtained proMMP-9 fraction was activated by TPCK-Trypsin (Final conc. 3 μg/501 μl React Mix.).
as §1, §2, §3, §4, §5, §6

IC50 [nM] | Compound
212 | O=C(O)[C@@H](Cc1ccccc1)NS(=O)(=O)c1ccc(-c2ncc(-c3ccc4ccccc4c3)o2)cc1 [Compound A-1]
43.8 | COc1ccc(-c2cnc(-c3ccc(S(=O)(=O)N[C@H](Cc4ccccc4)C(=O)O)cc3)s2)cc1 [Compound B-1]
173 | C[C@@H](NS(=O)(=O)c1ccc(-c2ncc(-c3ccc4ccccc4c3)s2)cc1)C(=O)O [Compound B-53]
14.8 | CC(C)[C@H](NS(=O)(=O)c1ccc(-c2ncc(-c3ccc(Cl)cc3)s2)cc1)C(=O)O [Compound B-5]

Target: T5, MMP-13 (Homo sapiens, UniProt P45452)
T5 construct: catalytic domain (^104Tyr˜^267Gly) was amplified with RT-PCR; His-tag; enterokinase digestion-site; made in house; host or cells: Escherichia coli
Test: Assay for inhibitory activities on MMPs (fluorogenic peptide substrate), MMP-13
Assay type: biochemical
Details: catalytic domain 104Tyr-267Gly; substrate MOCAc-Pro-Leu-Gly-Leu-A2Pr(DNP)-Ala-Arg-NH2
Method: as §7, with “MMP-13, mRNA was prepared from carcinoma cell SW1353 derived from human cartilage stimulate by IL-1, TNF and” for “MMP-12,”, “domain (^104Tyr˜^267Gly)” for “domain(^100Phe˜^263Gly)”, “RT-PCR.” for “RT-PCR from Human Placenta Total RNA.”, “MMP-13” for “MMP-12”, “dialyze” for “dialysis”, “MMP-13.” for “MMP-12.”
as §1, §2, §3, §4, §5, §6

IC50 [nM] | Compound
15 | O=C(O)[C@@H](Cc1ccccc1)NS(=O)(=O)c1ccc(-c2ncc(-c3ccc4ccccc4c3)o2)cc1 [Compound A-1]
2.96 | COc1ccc(-c2cnc(-c3ccc(S(=O)(=O)N[C@H](Cc4ccccc4)C(=O)O)cc3)s2)cc1 [Compound B-1]
12.4 | C[C@@H](NS(=O)(=O)c1ccc(-c2ncc(-c3ccc4ccccc4c3)s2)cc1)C(=O)O [Compound B-53]
6.18 | CC(C)[C@H](NS(=O)(=O)c1ccc(-c2ncc(-c3ccc(Cl)cc3)s2)cc1)C(=O)O [Compound B-5]
